Usually pIC50 stands for the IC50 on a negative log10 scale, so that one unit is a factor of ten. A lower pIC50 goes with a high IC50.

IC50 data for 20 molecules are collected here from ChEMBL document CHEMBL1133919, “Identification of selective inhibitors of cyclin dependent kinase 4” (Bioorg Med Chem Lett, 2001).

The target of assay [1] is T1, Cyclin-dependent kinase 4/cyclin D1 (Homo sapiens, UniProt P11802). Description: Inhibitory activity against Cyclin dependent kinase CDK4/D1. The class given is protein-complex assay.
The test system of assay [2] is HCT-116. Briefly: Inhibition of colon carcinoma cell line HCT116 proliferation. To be noted: Homo sapiens. The class given is functional, cell-based.
The test system of assay [3] is SKUT-1A. Description: Inhibition of Rb negative Skut 1A cell proliferation. The class given is functional, cell-based. Conditions: Homo sapiens.
The test system of assay [4] is Skut1B. Briefly: Inhibition of Rb positive Skut 1B cell proliferation. Conditions: Homo sapiens. The class given is functional, cell-based.
For assay [5], the target named is Cyclin-dependent kinase 1 (Homo sapiens) (UniProt P06493). Briefly: Inhibition of Cyclin dependent kinase CDK1/B.
Assay [6] concerns the target Cyclin-dependent kinase 1/cyclin B (Homo sapiens, UniProt P06493). Briefly: Inhibition of CDK1/cyclin B. The assay is classed as protein-complex assay.
Assay [7] addresses Cyclin-dependent kinase 2/cyclin E (Homo sapiens, UniProt P24941). Briefly: Inhibition of CDK2/cyclin E. The assay is classed as protein-complex assay.
Assay [8] has as its target T1, Cyclin-dependent kinase 4/cyclin D1. Briefly: Inhibition of Cyclin dependent kinase CDK4/cyclin D1. The class given is protein-complex assay.

pIC50: −log10 of the molar value. A value given as a limit tells only on which side of the number the result lay.

T1 sequence (P11802 whole entry): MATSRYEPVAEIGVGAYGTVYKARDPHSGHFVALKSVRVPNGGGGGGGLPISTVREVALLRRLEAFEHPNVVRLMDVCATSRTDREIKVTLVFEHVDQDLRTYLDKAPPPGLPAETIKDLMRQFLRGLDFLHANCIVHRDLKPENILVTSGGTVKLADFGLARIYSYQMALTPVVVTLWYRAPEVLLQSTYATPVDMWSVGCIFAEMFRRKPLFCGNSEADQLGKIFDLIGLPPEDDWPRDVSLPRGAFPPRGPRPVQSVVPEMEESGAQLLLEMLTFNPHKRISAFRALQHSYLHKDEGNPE
T1 sequence (P24385 whole entry, further chain): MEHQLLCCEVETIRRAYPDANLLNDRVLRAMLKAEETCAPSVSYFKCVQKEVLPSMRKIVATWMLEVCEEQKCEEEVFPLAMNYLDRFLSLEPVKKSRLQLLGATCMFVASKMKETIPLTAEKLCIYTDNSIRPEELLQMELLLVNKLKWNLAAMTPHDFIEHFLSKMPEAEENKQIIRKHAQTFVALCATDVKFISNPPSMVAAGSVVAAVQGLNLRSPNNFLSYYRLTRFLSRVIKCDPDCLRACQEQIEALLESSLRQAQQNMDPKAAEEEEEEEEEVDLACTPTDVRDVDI
Sequence of Cyclin-dependent kinase 1 (Homo sapiens) (P06493 whole entry, looked up): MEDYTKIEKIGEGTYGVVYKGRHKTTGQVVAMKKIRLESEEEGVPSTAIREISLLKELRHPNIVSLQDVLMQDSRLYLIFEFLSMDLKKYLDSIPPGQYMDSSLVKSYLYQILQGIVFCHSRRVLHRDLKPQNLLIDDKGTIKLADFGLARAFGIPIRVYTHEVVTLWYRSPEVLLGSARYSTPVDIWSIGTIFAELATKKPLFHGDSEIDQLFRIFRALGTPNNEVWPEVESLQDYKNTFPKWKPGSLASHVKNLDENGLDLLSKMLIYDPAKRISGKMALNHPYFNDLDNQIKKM

In assay [1], `Oc1ccc2c(ccc3[nH]c4c(-c5ccccc5)cccc4c32)c1` gave a pIC50 of 4.54.
On to `c1ccc2c(c1)[nH]c1ccc3cnccc3c12`, for which the pIC50 in assay [1] is 4.52.
As for `c1ccc(-c2cccc3c2[nH]c2ccc4ccccc4c23)cc1`, the negative logarithm of the IC50 (pIC50) in assay [1] is less than 3.47.
Take `COc1ccc2ccc3[nH]c4c(-c5ccccc5)cccc4c3c2c1`: the pIC50 in assay [1] is less than 3.51.
In assay [1], `Oc1ccc2ccc3[nH]c4ccc(-c5ccccc5)cc4c3c2c1` gave a pIC50 of 4.43.
`Oc1ccc2ccc3[nH]c4cccc(-c5ccccc5)c4c3c2c1` gave a pIC50 in assay [1] of 4.08.
For the molecule `Nc1cccc(-c2cccc3c2[nH]c2ccc4ccc(O)cc4c23)c1`, the negative-log IC50 (pIC50) in assay [1] is 5.64; in assay [2] it was 5.02; in assay [3] it was 4.94; in assay [4] it was 5.39; in assay [5], 4.13.
`c1ccc2c(c1)[nH]c1ccc3ncccc3c12` gave a pIC50 in assay [1] of 3.71.
Regarding `Oc1cccc2c1ccc1[nH]c3c(-c4ccccc4)cccc3c12`, the negative-log IC50 (pIC50) in assay [1] is 5.24.
As for `Oc1cccc2ccc3[nH]c4c(-c5ccccc5)cccc4c3c12`, in assay [1], the pIC50 is 4.71.
As for `Oc1ccc(-c2cccc3c2[nH]c2ccc4ccc(O)cc4c23)cc1`, the pIC50 in assay [1] is 5.72; in assay [2], 5.66; in assay [3], 5.25; in assay [4], 5.64.
In assay [1], `Oc1ccc2ccc3[nH]c4cc(-c5ccccc5)ccc4c3c2c1` had a pIC50 of 4.66.
The same measure, in the same setting: as for `Nc1ccc2ccc3[nH]c4c(-c5ccccc5)cccc4c3c2c1`, the figure is 4.56; as for `c1cnc2c(c1)ccc1[nH]c3ccccc3c12`, 3.35.
`Oc1ccc2ccc3[nH]c4c(-c5ccc(Cl)cc5)cccc4c3c2c1`: the pIC50 was 5.00 in assay [1], 4.29 in assay [2], 4.44 in assay [3] and 4.99 in assay [4].
Regarding `Oc1ccc2ccc3[nH]c4c(-c5ccccc5)cccc4c3c2c1`, the negative logarithm of the IC50 (pIC50) was 4.02 in assay [6]; 4.01 in assay [7]; 5.44 in assay [8]; 4.99 in assay [2]; 4.97 in assay [3]; 5.55 in assay [4].
For `Oc1ccc2ccc3[nH]c4ccccc4c3c2c1`, the pIC50 in assay [1] was 4.76.
`c1ccc2c(c1)[nH]c1ccc3ccncc3c12` gave a pIC50 in assay [1] of 3.80. This pIC50 lies 0.96 log units lower than the previous one.
Same read-out and setting: the same measure for `[O-][n+]1ccc2ccc3[nH]c4ccccc4c3c2c1`: 3.22; for `[O-][n+]1ccc2c(ccc3[nH]c4ccccc4c32)c1`: 4.23.
